Experimental data reported in patent publication US20220064736A1, “UROTHELIAL CANCER AND METHODS OF DETECTION AND TARGETED THERAPY” (THE JOHNS HOPKINS UNIVERSITY, priority 2015, published 2022).

How the values were obtained:
GULP1 transcript = assay: 5-Aza-dC treatment of UC cell lines, GULP1 expression by RT-PCR; format: cell-based, human
Procedure: Twenty four hours before treatment, cells were plated at low density (1-3×10^6 cells, dependent on growth characteristics of the respective cell line) in T75 cm^2 Tissue Culture Flasks (BD Biosciences, Bedford, Mass., USA). Stock solutions of 100 mM 5-Aza-dC (Sigma-Aldrich, St. Louis, Mo.) and 5 mM Trichostatin A (TSA) (Sigma-Aldrich) were prepared with DMSO (Sigma-Aldrich). Immediately before addition to the cell culture medium, appropriate aliquots of the stock solutions were dissolved in PBS (pH 7.5). Cells were treated with 5 μM 5-Aza-dC for 3 to 5 days. Medium with 5-Aza-dC was changed daily. Additionally, combination treatment with 5-Aza-dC and TSA was performed by adding 5 μM of 5-Aza-dC daily for 5 days and TSA (300 nmol/L) was added to the medium for the final 24 hours. Cells were harvested 24 hours after the last day of treatment (5-Aza-dC only and 5-Aza-dC+TSA) for RNA extraction and the analysis of gene expression by Reverse Transcriptase-PCR (RT-PCR).
Total RNA (500 ng) from cell lines and from bladder tissue were reverse-transcribed with qScript cDNA SuperMix™ (Quanta BioSciences) kit. The primers were designed by using Primer3 software. Actin type B (ACTB) was used as a loading control. […] Expression of the gene of interest was quantified by 2^−ΔΔCT method.

[1] = system: T24 shGULP1 cells versus T24 shScramble cells; assay: MTT viability assay upon treatment with serial dilution of cisplatin; format: cell-based, human; settings: T24 shGULP1 vs T24 shScramble, different concentrations of CDDP
[2] = system: muscle-invasive bladder cancer (MIUC); settings: patients with MIUC, neo-adjuvant chemotherapy preceding radical surgery; cited from earlier work
[3] = system: GULP1 localization in T24 cells; assay: Confocal imaging of GULP1 subcellular localization upon blocking nuclear export; format: cell-based, human; settings: treatment for 5 hours
Procedure: To this end, the subcellular localization of GULP1 was determined by confocal microscopy analysis and nuclear-cytoplasm fractionation experiments using T24 cell line. The findings indicate that GULP1 localized in both nucleus and cytoplasm (FIG. 3d, upper and lower panel, and FIG. 8a). Ubiquitous localization pattern of GULP1 was further confirmed by performing immunofluorescence and confocal microscopy analysis by using two different antibodies against GULP1 and upon blocking nuclear export machinery by Leptomycin B (LMB) treatment for 5 hours (T24 cells in FIG. 3d and FIG. 8b).
Cells were grown on glass coverslips for 72 hs. After fixation in 4% paraformaldehyde, they were incubated in PBS 0.2% Glycine, permeabilized with PBS 10% Triton X100 for 10 minutes and incubated in Blocking buffer (PBS 3% BSA, 10% goat serum, 0.02% Tween) for 2-3 hours at r.t.
Incubation with the indicated primary antibodies (see Table 5) has been performed at 4° C. in the dark. After 5 washing with PBS 0.02% Tween, coverslips have been incubated with the indicated secondary antibodies (Table 5) for 1 h at r.t. For the case actin cytoskeleton analysis, after fixation, the coverslips have been incubated 90 minutes with Alexa Fluor® 488 Phalloidin (Life Technologies, 1:1000 in PBS). […] Slides were examined and photographed using a fluorescence microscope.

[4] = target: T1, Nuclear factor E2-related factor 2 (Nrf2) (UniProt Q16236 1-605, limits assumed); assay: co-immunoprecipitation of endogenous GULP1 from whole-cell lysates (BFTC905, BFTC909, HUC1, T24), western blot
T1 construct: Endogenous protein from lysates of human cell lines; also called NFE2L2; NF2EL2
T1 sequence (looked up): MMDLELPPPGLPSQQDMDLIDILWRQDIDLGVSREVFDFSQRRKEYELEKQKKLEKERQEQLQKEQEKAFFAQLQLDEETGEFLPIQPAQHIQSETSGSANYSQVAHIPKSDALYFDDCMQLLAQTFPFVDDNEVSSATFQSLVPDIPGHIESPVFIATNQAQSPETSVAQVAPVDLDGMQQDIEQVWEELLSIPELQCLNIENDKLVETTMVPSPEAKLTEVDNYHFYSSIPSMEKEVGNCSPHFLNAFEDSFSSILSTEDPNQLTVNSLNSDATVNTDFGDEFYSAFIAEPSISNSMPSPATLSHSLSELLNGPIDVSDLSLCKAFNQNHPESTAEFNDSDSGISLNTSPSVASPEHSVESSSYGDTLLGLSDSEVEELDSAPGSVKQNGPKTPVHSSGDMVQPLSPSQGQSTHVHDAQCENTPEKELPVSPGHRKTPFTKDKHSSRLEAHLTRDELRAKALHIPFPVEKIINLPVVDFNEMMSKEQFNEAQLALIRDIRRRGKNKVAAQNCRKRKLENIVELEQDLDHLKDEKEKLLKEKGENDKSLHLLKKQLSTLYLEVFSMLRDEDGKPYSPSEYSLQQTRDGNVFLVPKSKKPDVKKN
Source text: (§1) a. […] Confocal imaging analysis of T24 cells. […] A not related protein antibody was used as a negative control for IP and 10% of whole cell lysate was used as input. d.

[5] = target: T2, BTB and CNC homology 1 (Bach1) (UniProt O14867 1-736); assay: as above
T2 construct: Endogenous protein from lysates of human cell lines
T2 sequence (looked up): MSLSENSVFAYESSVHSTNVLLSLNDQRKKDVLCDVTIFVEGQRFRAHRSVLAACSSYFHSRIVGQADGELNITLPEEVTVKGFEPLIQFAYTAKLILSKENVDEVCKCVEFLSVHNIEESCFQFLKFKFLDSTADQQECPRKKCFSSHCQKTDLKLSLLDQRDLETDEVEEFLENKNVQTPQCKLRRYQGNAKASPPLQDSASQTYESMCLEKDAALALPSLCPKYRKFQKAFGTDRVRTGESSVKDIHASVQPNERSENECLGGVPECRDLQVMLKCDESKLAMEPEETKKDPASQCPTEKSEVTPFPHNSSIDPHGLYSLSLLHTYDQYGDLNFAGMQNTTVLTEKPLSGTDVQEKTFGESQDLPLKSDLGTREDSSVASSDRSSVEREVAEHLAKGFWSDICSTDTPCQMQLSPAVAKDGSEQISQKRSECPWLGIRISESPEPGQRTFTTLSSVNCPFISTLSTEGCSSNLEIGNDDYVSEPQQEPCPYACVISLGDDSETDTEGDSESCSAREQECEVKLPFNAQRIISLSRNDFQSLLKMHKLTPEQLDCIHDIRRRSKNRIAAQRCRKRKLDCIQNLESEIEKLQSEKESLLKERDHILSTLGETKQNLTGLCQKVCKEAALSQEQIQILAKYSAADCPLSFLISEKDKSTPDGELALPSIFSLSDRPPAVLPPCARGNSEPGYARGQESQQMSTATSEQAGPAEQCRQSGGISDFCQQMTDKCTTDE
Source text: as §1

Nc1ncn([C@H]2C[C@H](O)[C@@H](CO)O2)c(=O)n1 [5-aza-dC, 5-Aza-2′-deoxycytidine]
GULP1 transcript level (GULP1 transcript; HT-1376 and SW780 UC cells, 5-azadC with or without trichostatin A (TSA), consistent with promoter demethylation): several fold increase in GULP1 transcript | GULP1 reactivation (GULP1 transcript; UC cell lines): reactivation of GULP1 was observed

[NH2][Pt]([NH2])([Cl])[Cl] [CDDP, Cisplatin]
Cell viability of GULP1 knock-down cells compared with control cells [1]: significantly higher viability than the control cells | overall long-term survival benefit [2]: 6%

CCC(=C/[C@H](C)C/C=C/C(C)=C/[C@@H](C)C(=O)[C@@H](C)[C@H](O)[C@@H](C)C/C(C)=C/C(=O)O)/C=C/[C@@H]1OC(=O)C=C[C@@H]1C [Leptomycin B]
GULP1 nuclear export [3]: prevent GULP1 from going out from nucleus

B1: PTB Domain-Containing Engulfment Adaptor Protein1 (GULP1) (other, human, UniProt Q9UBP9 1-304, looked up)
chain: MNRAFSRKKDKTWMHTPEALSKHFIPYNAKFLGSTEVEQPKGTEVVRDAVRKLKFARHIKKSEGQKIPKVELQISIYGVKILEPKTKEVQHNCQLHRISFCADDKTDKRIFTFICKDSESNKHLCYVFDSEKCAEEITLTIGQAFDLAYRKFLESGGKDVETRKQIAGLQKRIQDLETENMELKNKVQDLENQLRITQVSAPPAGSMTPKSPSTDIFDMIPFSPISHQSSMPTRNGTQPPPVPSRSTEIKRDLFGAEPFDPFNCGAADFPPDIQSKLDEMQEGFKMGLTLEGTVFCLDPLDSRC
notes: Endogenous protein from cell lysates; also called engulfment adaptor PTB domain containing 1; human homologue of CED-6
binding result [4]: no binding | binding result [5]: no binding
